Laboratory results taken from ChEMBL document CHEMBL1151000, “Novel synthetic rotenoids with blocked B/C ring systems” (Bioorg Med Chem Lett, 1992).

Columns and labels:
[1] = The compound was evaluated for the inhibition of NADH dehydrogenase
[2] = The compound was evaluated for the insecticidal activity against housefly with cytochrome P450 oxidase inhibitor piperonyl butoxide; type: ADME; conditions: musca domestica
[3] = The compound was evaluated for the insecticidal activity against housefly without cytochrome P450 oxidase inhibitor piperonyl butoxide; conditions: musca domestica

Compound | IC50 [1] | LD50 [2] | LD50 [3]
COc1cc2c(cc1OC)[C@]1(C)C(=O)c3ccc4c(c3O[C@@H]1CO2)C[C@H](C(C)C)O4 | 0.016 µM | – | –
C=C(C)[C@H]1Cc2c(ccc3c2O[C@@H]2COc4cc(OC)c(OC)cc4[C@@]2(C)C3=O)O1.C=C(C)[C@H]1Cc2c(ccc3c2O[C@H]2COc4cc(OC)c(OC)cc4[C@]2(C)C3=O)O1 | 0.36 µM | 4 ug fly-1 | > 10 ug fly-1
C=C(C)[C@H]1Cc2c(ccc3c2O[C@@H]2COc4cc(OC)c(OC)cc4[C@]2(C)C3=O)O1 | 0.017 µM | 0.2 ug fly-1 | 2 ug fly-1
C=C(C)[C@H]1Cc2c(ccc3c2OC24COc5cc(OC)c(OC)cc5C2(C4)C3=O)O1 (some centres not stated) | 0.08 µM | 10 ug fly-1 | –
C=C(C)[C@H]1Cc2c(ccc3c2O[C@@H]2COc4cc(OC)c(OC)cc4[C@@H]2C3=O)O1 [ROTENONE] | 0.0035 µM | 5 ug fly-1 | 10 ug fly-1
